# Results as given in paper PMC12775802, “Dual targeting of AMRC12 and Malassezia globosa disrupts MYC liquid condensates-driven nuclear pore complex biogenesis in neuroblastoma” (Theranostics, 2026).
# Biological target: ARMC12 (Homo sapiens, UniProt Q5T9G4)
# Conditions: recombinant wild-type protein; 20 uM (Figure 4F legend; b48 prints 20 mM); 4 °C, 2 h; compound covalently conjugated to beads; site at R320
# Chain of ARMC12 (Q5T9G4 1-367 isoform Q5T9G4-2): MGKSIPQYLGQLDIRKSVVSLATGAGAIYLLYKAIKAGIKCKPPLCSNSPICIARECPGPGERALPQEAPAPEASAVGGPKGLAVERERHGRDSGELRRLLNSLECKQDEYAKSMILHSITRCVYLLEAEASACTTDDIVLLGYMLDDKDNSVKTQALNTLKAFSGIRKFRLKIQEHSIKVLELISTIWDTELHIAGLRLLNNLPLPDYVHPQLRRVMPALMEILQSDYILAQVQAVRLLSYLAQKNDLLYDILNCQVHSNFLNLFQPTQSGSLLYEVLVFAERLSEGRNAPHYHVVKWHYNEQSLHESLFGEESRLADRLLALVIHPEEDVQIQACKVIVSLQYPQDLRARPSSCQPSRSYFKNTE
smiles,measurement,value
"Clc1ccc(C(Cn2ccnc2)OCc2ccsc2Cl)c(Cl)c1 (stereo not shown) [TCZ, tioconazole]","affinity purification on compound-conjugated NHS beads, western blot",TCZ directly interacted with recombinant wild-type ARMC12 protein rather than its mutant
